“Also recorded” adds a separate entry of the source.
Legend:
[1] = system: MM cell lines; experiment: MTT growth inhibition / cytotoxicity assay in MM cell lines; assay type: cell-based, human; conditions: for growth inhibitory / cytotoxic effect as single agent: MM cell lines, MTT and 3H-thymidine uptake
Protocol: The inhibitory effect of bortezomib and/or tubacin on MM cell growth was assessed by measuring 3-(4,5-dimethylthiazol-2-yl)-2,5-diphenyl tetrazolium bromide (MTT) dye absorbance, as described previously (33). […] All experiments were performed in quadruplicate.
These cells were treated with tubacin (1.25-20 μM) for 48 h (FIG. 2A) and 72 h (FIG. 2B), and cytotoxicity was assessed by MTT assay, as describe.

[2] = system: MM patient plasma cells from BM (BMPCs); experiment: MTT cytotoxicity assay in MM patient plasma cells; assay type: cell-based, human; conditions: tubacin 5 μM with bortezomib, 24 h
Text: Dex-sensitive (MM.1S) and resistant (MM.1R) human MM cell lines were kindly provided by Dr. Steven Rosen (Northwestern University, Chicago, Ill.). RPMI8226 and U266 human MM cell lines were obtained from American Type Culture Collection (Rockville, Md.). IL-6 dependent INA-6 cell line was kindly provided by Dr M Gramatzki (Erlangen, Germany). Melphalan-resistant RPMI-LR5 and doxorubicin-resistant RPMI-Dox40 cell lines were provided by Dr William Dalton (Lee Moffitt Cancer Center, Tampa, Fla.). All MM cell lines were cultured in RPMI-1640 containing 10% fetal bovine serum (FBS, Sigma Chemical Co., St. Louis, Mo.), […] L-glutamine, 100 U/ml penicillin, and 100 μg/ml streptomycin (GIBCO, Grand Island, N.Y.). INA-6 cells were maintained with addition of IL-6 (1 ng/ml). MM patient plasma cells were purified from bone marrow (BM) aspirates by negative selection using an antibody cocktail (RosetteSep Separation System, StemCell Technologies, Vancouver, Canada), as previously described (31). The purity of MM cells was >90%, as confirmed by flow cytometric analysis using anti-CD138 Ab (BD Pharmingen, San Diego, Calif.). […]
The inhibitory effect of bortezomib and/or tubacin on MM cell growth was assessed by measuring 3-(4,5-dimethylthiazol-2-yl)-2,5-diphenyl tetrazolium bromide (MTT) dye absorbance, as described previously (33). […]

[3] = system: MM.1S cells; experiment: Cell cycle profile by flow cytometry (PI staining); assay type: cell-based, human; conditions: 24 h
Protocol: […] Cells were then stained with propidium iodine (PI, Sigma) (5 μg/ml) and cell cycle profile was determined using program M software on an Epics flow cytometer (Coulter Immunology, Hialeah, Fla.) (44).

[4] = system: MM.1S and RPMI cells; experiment: Synergy with Velcade/Bortezomib in myeloma cell lines; assay type: cell-based
[5] = system: JNK phosphorylation and caspase/PARP cleavage; experiment: Western blotting for p21Cip1, p-JNK, caspases and PARP; assay type: cell-based, human
Protocol: MM cells were cultured with Velcade and/or Tubacin; harvested; washed; and lysed using lysis buffer: 50 mM Tris-HCl (pH 7.4), 150 mM NaCl, 1% NP-40, 5 mM EDTA, 5 mM NaF, 2 mM Na3VO4, 1 mM PMSF, 5 μg/ml leupeptine, and 5 μg/ml aprotinin. Cell lysates were subjected to SDS-PAGE, transferred to PVDF membrane (Bio-Rad Laboratories, Hercules, Calif.), and immunoblotted with Abs against specific proteins.
(§1) Cells cultured with tubacin and/or bortezomib were harvested; washed, and lysed using lysis buffer: 50 mM Tris-HCl (pH 7.4), 150 mM NaCl, 1% NP-40, 5 mM EDTA, 5 mM NaF, 1 mM Na3VO4, 1 mM PMSF, 5 μg/ml leupeptine, and 5 μg/ml aprotinin. Whole cell lysates were subjected to SDS-PAGE, transferred to nitrocellulose membrane (Bio-Rad Laboratories, Hercules, Calif.), and immunoblotted with specific Abs (31). Western blotting was done using anti-HDAC6, acetylated lysine, acetylated histone H3, acetylated histone H4, ubiquitin (Ub), phospho-SAPK (JNK), caspase-8 caspase-9, caspase-3, and PARP Abs (Cell Signaling, Beverly, Mass.); with anti-α-tubulin Ab (Santa Cruz Biotechnology, Santa Cruz, Calif.); as well as with anti-dynein Ab (Sigma, Saint Louis, Mo.). For immunoprecipitation, whole cell lysates were incubated with anti-Ub or dynein Abs overnight at 4° C., and then incubated with protein A/G PLUS-Agarose (Santa Cruz Biotechnology) for 2 h at 4° C., as in our prior study (31). Immunoprecipitates were then subjected to Western blotting for detection of HDAC6 and dynein.

[6] = system: polyubiquitinated proteins; experiment: Western blotting with anti-Ub Ab; assay type: cell-based, human; conditions: tubacin alone
Protocol: as §1

With `O=C(CCCCCCC(=O)Nc1ccc([C@H]2O[C@@H](CSc3nc(-c4ccccc4)c(-c4ccccc4)o3)C[C@@H](c3ccc(CO)cc3)O2)cc1)NO` [tubacin] the IC50 ([1]; Homo sapiens, 72 h, drug-sensitive and -resistant MM cell lines) was 5 to 20 µM, the “growth inhibitory / cytotoxic effect as single agent” value [1] was “marked anti-proliferative, proapoptotic effects; also recorded: dose-dependent growth inhibitory effect” and the “growth inhibitory / cytotoxic effect as single agent” value ([1]; listed as Tubacin) was “cytotoxic”. The “effect of tubacin on bortezomib (Velcade)-induced cytotoxicity” value ([1]; MM.1S and RPMI8226 cells, 24 h, MTT) was “synergistically enhances bortezomib-induced cytotoxicity; also recorded: Synergy; also recorded: potently sensitizes myeloma cells to subtoxic concentrations of bortezomib; also recorded: significantly (p<0.01) augmented cytotoxicity triggered by Velcade; also recorded: synergistic anti-tumor activity”, the “effect of tubacin on bortezomib (Velcade)-induced cytotoxicity in patient MM cells” value [2] was “markedly augmented by tubacin; also recorded: significantly (p<0.01) augments cytotoxicity triggered by Velcade; also recorded: synergistically enhances bortezomib-induced cytotoxicity” and the “G2/M arrest triggered by Velcade” value ([3]; Velcade 5 nM with tubacin 5 μM) was “significantly inhibits G2/M arrest”. The cell cycle profile ([3]; tubacin 5 μM alone) was “does not alter cell cycle profile”, the “synergy with Velcade” value ([4]; MM.1S and RPMI cells) was “synergy” and the “toxicity and synergy with Bortezomib” value ([4]; MM.1S cells) was “toxicity and synergy”. The “toxicity and synergy with Bortezomib” value ([4]; RPMI-8226 cells) was “toxicity and synergy”, the “phosphorylation of JNK and caspase/PARP cleavage” value ([5]; MM.1S cells, tubacin 5 μM and/or bortezomib 5 nM, 24 h) was “does not trigger phosphorylation of JNK or caspase/PRAP cleavage” and the “induction of p21Cip1 induced by bortezomib” value ([5]; tubacin 5 μM + bortezomib 5 nM, MM.1S, 24 h) was “inhibits induction of p21^Cip1 induced by bortezomib”. The “induction of p21Cip1” value ([5]; tubacin 5 μM alone, MM.1S, 24 h) was “does not trigger induction of p21^Cip1”, the caspase-8/PARP cleavage ([5]; tubacin 10 μM, 0-24 h, MM.1S and RPMI8226 cells) was “time-dependent caspase-8/PARP cleavage is induced; also recorded: induces cytotoxicity via activation of caspases” and the polyubiquitinated proteins ([6]; MM.1S cells) was “no significant change”. For the same compound, the polyubiquitinated proteins ([6]; RPMI8226 cells) was “significantly accumulate; also recorded: increase in cellular ubiquitinated proteins”.

Source: patent US10172905B1, “Treatment of protein degradation disorders” (President and Fellows of Harvard College, priority 2005, dated 2019)
